In paper PMC9150124, “Design of a Potent, Selective, and Brain-Penetrant Inhibitor of Wnt-Deactivating Enzyme Notum by Optimization of a Crystallographic Fragment Hit” (Journal of Medicinal Chemistry, 2022):

Experiments:
Assay in all cases: SelectScreen kinase profiling, SSBK ZLyte SP Technology
Type in all cases: biochemical
[1] = target: kinase named in conditions (Homo sapiens, UniProt O43293); details: DAPK3 (ZIPK), 10 μM
Method: (§1) Kinase selectivity screening was performed by Thermo Fisher Scientific (Paisley, U.K.) in their SelectScreen Biochemical Kinase Profiling Service. Assay information and data are presented in the Supporting Information.
(§2) Kinase selectivity screening was performed by ThermoFisher Scientific (Paisley, U.K.) in their SelectScreenTM
(§3) Biochemical Kinase Profiling service .

[2] = target: kinase named in conditions (Homo sapiens, UniProt P36896); details: ACVR1B (ALK4), 10 μM
Method: as §1, §2, §3

[3] = target: kinase named in conditions (Homo sapiens, UniProt P10721, V559D/V654A); details: KIT V559D V654A, 10 μM
Method: as §1, §2, §3

[4] = target: kinase named in conditions (Homo sapiens, UniProt P00519, F317I); details: ABL1 F317I, 10 μM
Method: as §1, §2, §3

[5] = target: kinase named in conditions (Homo sapiens, UniProt P80192); details: MAP3K9 (MLK1), 10 μM
Method: as §1, §2, §3

[6] = target: kinase named in conditions (Homo sapiens, UniProt Q86V86); details: PIM3, 10 μM
Method: as §1, §2, §3

[7] = target: kinase named in conditions (Homo sapiens, UniProt Q13164); details: MAPK7 (ERK5), 10 μM
Method: as §1, §2, §3

[8] = target: kinase named in conditions (Homo sapiens, UniProt Q08881); details: ITK, 10 μM
Method: as §1, §2, §3

[9] = target: kinase named in conditions (Homo sapiens, UniProt Q9UQB9); details: AURKC (Aurora C), 10 μM
Method: as §1, §2, §3

[10] = target: kinase named in conditions (Homo sapiens, UniProt Q13131)
Method: as §1, §2, §3

[11] = target: kinase named in conditions (Homo sapiens, UniProt Q9H792); details: PEAK1, 10 μM
Method: as §1, §2, §3

[12] = target: kinase named in conditions (Homo sapiens, UniProt O14920); details: IKBKB (IKK beta), 10 μM
Method: as §1, §2, §3

[13] = target: kinase named in conditions (Homo sapiens, UniProt P31749); details: AKT1 (PKB alpha), 10 μM
Method: as §1, §2, §3

[14] = target: kinase named in conditions (Homo sapiens, UniProt P21709); details: EPHA1, 10 μM
Method: as §1, §2, §3

[15] = target: kinase named in conditions (Homo sapiens, UniProt P09619); details: PDGFRB (PDGFR beta), 10 μM
Method: as §1, §2, §3

[16] = target: kinase named in conditions (Homo sapiens, UniProt P17252); details: PRKCA (PKC alpha), 10 μM
Method: as §1, §2, §3

[17] = target: kinase named in conditions (Homo sapiens, UniProt P27448); details: MARK3, 10 μM
Method: as §1, §2, §3

[18] = target: kinase named in conditions (Homo sapiens, UniProt P54756); details: EPHA5, 10 μM
Method: as §1, §2, §3

[19] = target: kinase named in conditions (Homo sapiens, UniProt P78362); details: SRPK2, 10 μM
Method: as §1, §2, §3

[20] = target: kinase named in conditions (Homo sapiens, UniProt Q9P0L2); details: MARK1 (MARK), 10 μM
Method: as §1, §2, §3

[21] = target: kinase named in conditions (Homo sapiens, UniProt Q16620); details: NTRK2 (TRKB), 10 μM
Method: as §1, §2, §3

[22] = target: kinase named in conditions (Homo sapiens, UniProt P00519, F317L); details: ABL1 F317L, 10 μM
Method: as §1, §2, §3

[23] = target: kinase named in conditions (Homo sapiens, UniProt P35916); details: FLT4 (VEGFR3), 10 μM
Method: as §1, §2, §3

[24] = target: kinase named in conditions (Homo sapiens, UniProt Q9NQU5); details: PAK6, 10 μM
Method: as §1, §2, §3

[25] = target: kinase named in conditions (Homo sapiens, UniProt P05129); details: PRKCG (PKC gamma), 10 μM
Method: as §1, §2, §3

[26] = target: kinase named in conditions (Homo sapiens, UniProt P54753); details: EPHB3, 10 μM
Method: as §1, §2, §3

[27] = target: kinase named in conditions (Homo sapiens, UniProt P00533); details: EGFR (ErbB1), 10 μM
Method: as §1, §2, §3

[28] = target: kinase named in conditions (Homo sapiens, UniProt P51451); details: BLK, 10 μM
Method: as §1, §2, §3

[29] = target: kinase named in conditions (Homo sapiens, UniProt O95819); details: MAP4K4 (HGK), 10 μM
Method: as §1, §2, §3

[30] = target: kinase named in conditions (Homo sapiens, UniProt Q9UM73); details: ALK, 10 μM
Method: as §1, §2, §3

[31] = target: kinase named in conditions (Homo sapiens, UniProt Q02763); details: TEK (Tie2), 10 μM
Method: as §1, §2, §3

[32] = target: kinase named in conditions (Homo sapiens, UniProt Q13882); details: PTK6 (Brk), 10 μM
Method: as §1, §2, §3

[33] = target: kinase named in conditions (Homo sapiens, UniProt P29597); details: TYK2, 10 μM
Method: as §1, §2, §3

[34] = target: kinase named in conditions (Homo sapiens, UniProt Q56UN5); details: MAP3K19 (YSK4), 10 μM
Method: as §1, §2, §3

FC(F)(F)c1c(Cl)ccc(-n2ccnn2)c1Cl [8l, 1-(2,4-Dichloro-3-(trifluoromethyl)phenyl)-1H-1,2,3-triazole]
inhibition at 10 µM [1]: 8% | inhibition at 10 µM [2]: -12% | inhibition at 10 µM [3]: 1% | inhibition at 10 µM [4]: 13% | inhibition at 10 µM [5]: -4% | inhibition at 10 µM [6]: 6% | inhibition at 10 µM [7]: -3% | inhibition at 10 µM [8]: -4% | inhibition at 10 µM [9]: 19% | inhibition at 10 µM ([10]; AMPK (A1/B2/G2), 10 μM): 6% | inhibition at 10 µM ([10]; AMPK (A1/B2/G3), 10 μM): 6% | inhibition at 10 µM ([10]; AMPK A1/B1/G1, 10 μM): 14% | inhibition at 10 µM [11]: 20% | inhibition at 10 µM [12]: -1% | inhibition at 10 µM [13]: 7% | inhibition at 10 µM [14]: 4% | inhibition at 10 µM [15]: 20% | inhibition at 10 µM [16]: -18% | inhibition at 10 µM [17]: 3% | inhibition at 10 µM [18]: 0% | inhibition at 10 µM [19]: 7% | inhibition at 10 µM [20]: -1% | inhibition at 10 µM [21]: 5% | inhibition at 10 µM [22]: 16% | inhibition at 10 µM [23]: 0% | inhibition at 10 µM [24]: 15% | inhibition at 10 µM [25]: 12% | inhibition at 10 µM [26]: -8% | inhibition at 10 µM [27]: 1% | inhibition at 10 µM [28]: 2% | inhibition at 10 µM [29]: -8% | inhibition at 10 µM [30]: 5% | inhibition at 10 µM [31]: -1% | inhibition at 10 µM [32]: 6% | inhibition at 10 µM [33]: 7% | inhibition at 10 µM [34]: -5%
